Drawing on patent US10035790B2, “RORγ modulators” (BRISTOL-MYERS SQUIBB COMPANY, priority 2012, dated 2018), this text covers IC50 for 25 compounds.

pIC50: −log10 of the molar value.

The test has as its target T1, ligand binding domain of human RORγ (A262-S507) (Homo sapiens, UniProt P51449).
T1 construct: made in house; host or cells: E. coli
T1 sequence (P51449 262-507): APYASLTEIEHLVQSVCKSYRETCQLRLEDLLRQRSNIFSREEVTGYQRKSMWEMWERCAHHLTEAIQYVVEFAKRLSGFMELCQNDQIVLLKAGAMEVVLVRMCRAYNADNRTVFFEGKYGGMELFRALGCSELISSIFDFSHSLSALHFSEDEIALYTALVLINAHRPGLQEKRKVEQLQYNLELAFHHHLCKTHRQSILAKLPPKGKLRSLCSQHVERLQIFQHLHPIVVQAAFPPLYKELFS
Nature of the test: General RORγ SPA binding assay (competition with [3H]25-hydroxycholesterol). The note with it: RORγ SPA binding assay, inhibition of [3H]25-hydroxycholesterol binding; read-out: IC50. The method, boiled down:
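Scintillation counts from copper His-tag SPA beads (4 mg/mL, 30 min) gave percent inhibition of radioligand binding, from which IC50 values are derived. The E. coli-expressed His-tagged domain (50 nM) is first exposed to compound for 15 min at room temperature in PBS containing 0.5% fatty acid free BSA.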
`Cc1nc(C)c(C(O)COc2cccc(C(F)(F)F)n2)c(C2CCN(C(=O)Nc3c(F)cccc3F)CC2)n1` (stereo not shown) [Compound N6, N-(2,6-Difluorophenyl)-4-[5-(1-hydroxy-2-{[6-(trifluoromethyl)pyridin-2-yl]oxy}ethyl)-2,6-dimethylpyrimidin-4-yl]piperidine-1-carboxamide]: the pIC50 is 8.40.
Turning to `Cc1nc(N)nc(C2CCN(C(=O)Nc3c(F)cccc3F)CC2)c1C(O)COc1ccnc(C(F)(F)F)n1` (stereo not shown) [Compound N7, 4-[2-amino-5-(1-hydroxy-2-{[2-(trifluoromethyl)pyrimidin-4-yl]oxy}ethyl)-6-methylpyrimidin-4-yl]-N-(2,6-difluorophenyl)piperidine-1-carboxamide], the pIC50 was 7.77.
Take `COc1nc(C)c(C(O)COc2ccnc(C(F)(F)F)n2)c(C2CCN(C(=O)Nc3c(F)cccc3F)CC2)n1` (stereo not shown) [Compound N8, N-(2,6-Difluorophenyl)-4-[5-(1-hydroxy-2-{[2-(trifluoromethyl)pyrimidin-4-yl]oxy}ethyl)-6-methyl-2-(methyloxy)pyrimidin-4-yl]piperidine-1-carboxamide]: the pIC50 was 8.32.
The figure for `Cc1nc(N)nc(C2CCN(C(=O)Nc3c(F)cccc3F)CC2)c1C(O)COc1cccc(C(F)(F)F)n1` (stereo not shown) [Compound N9, 4-[2-Amino-5-(1-hydroxy-2-{[6-(trifluoromethyl)pyridin-2-yl]oxy}ethyl)-6-methylpyrimidin-4-yl]-N-(2,6-difluorophenyl)piperidine-1-carboxamide] is 8.38; for `CC(=O)Nc1nc(C)c(C(O)COc2cccc(C(F)(F)F)n2)c(C2CCN(C(=O)Nc3c(F)cccc3F)CC2)n1` (stereo not shown) [Compound N10, 4-[2-(Acetylamino)-5-(1-hydroxy-2-{1-[6-(trifluoromethyl)pyridin-2-yl]oxy}ethyl)-6-methylpyrimidin-4-yl]-N-(2,6-difluorophenyl)piperidine-1-carboxamide] it is 7.68; for `CC(=O)Nc1nc(C)c(C(COc2cccc(C(F)(F)F)n2)OC(C)=O)c(C2CCN(C(=O)Nc3c(F)cccc3F)CC2)n1` (stereo not shown) [Compound N11, 1-[2-(Acetylamino)-4-(1-{[(2,6-difluorophenyl)amino]carbonyl}piperidin-4-yl)-6-methylpyrimidin-5-yl]-2-{[6-(trifluoromethyl)pyridin-2-yl]oxy}ethyl acetate] it is 7.43.
In the case of `Nc1ncc(C(O)CNc2ccnc(C(F)(F)F)n2)c(C2CCN(C(=O)Nc3c(F)cccc3F)CC2)n1` (stereo not shown) [Compound N12, 4-[2-amino-5-(1-hydroxy-2-{[2-(trifluoromethyl)pyrimidin-4-yl]amino}ethyl)pyrimidin-4-yl]-N-(2,6-difluorophenyl)piperidine-1-carboxamide] it was 7.16.
The figure for `Nc1ncc(C(O)COc2ccnc(C(F)(F)F)n2)c(C2CCN(C(=O)Oc3c(F)cccc3F)CC2)n1` (stereo not shown) [Compound N13, 2,6-Difluorophenyl 4-[2-amino-5-(1-hydroxy-2-{[2-(trifluoromethyl)pyrimidin-4-yl]oxy}ethyl)pyrimidin-4-yl]piperidine-1-carboxylate] is 8.17.
On to `Cc1ncc(C(F)(F)COc2cccc(C(F)(F)F)n2)c(C2CCN(C(=O)Nc3c(F)cccc3F)CC2)n1` [Compound N14, N-(2,6-Difluorophenyl)-4-[5-(1,1-difluoro-2-{[6-(trifluoromethyl)pyridin-2-yl]oxy}ethyl)-2-methylpyrimidin-4-yl]piperidine-1-carboxamide], for which the pIC50 was 8.39.
The figure for `Cc1ncc(C(F)(F)COc2cccc(C(F)(F)F)n2)c(C2CCN(C(=O)Nc3c(F)cccc3C(F)(F)F)CC2)n1` [Compound N15, 4-[5-(1,1-Difluoro-2-{[6-(trifluoromethyl)pyridin-2-yl]oxy}ethyl)-2-methylpyrimidin-4-yl]-N-[2-fluoro-6-(trifluoromethyl)phenyl]piperidine-1-carboxamide] is 7.96.
The figure for `Nc1ncc(C(F)(F)COc2ccnc(C(F)(F)F)n2)c(C2CCN(C(=O)Nc3c(F)cccc3F)CC2)n1` [Compound N17, 4-[2-Amino-5-(1,1-difluoro-2-{[2-(trifluoromethyl)pyrimidin-4-yl]oxy}ethyl)pyrimidin-4-yl]-N-(2,6-difluorophenyl)piperidine-1-carboxamide] is 8.21.
For `Cc1ncc(C(F)(F)CNc2ccnc(C(F)(F)F)n2)c(C2CCN(C(=O)Nc3c(F)cccc3F)CC2)n1` [Compound N18, N-(2,6-Difluorophenyl)-4-[5-(1,1-difluoro-2-{[2-(trifluoromethyl)pyrimidin-4-yl]amino}ethyl)-2-methylpyrimidin-4-yl]piperidine-1-carboxamide], the pIC50 is 7.79.
The figure for `Cc1ncc(C(F)(F)CNc2ccnc(C(F)(F)F)n2)c(C2CCN(C(=O)Cc3c(F)cccc3F)CC2)n1` [Compound N19, N-[2-(4-{1-[(2,6-Difluorophenyl)acetyl]piperidin-4-yl}-2-methylpyrimidin-5-yl)-2,2-difluoroethyl]-2-(trifluoromethyl)pyrimidin-4-amine] is 8.19; for `Cc1ncc(C(F)(F)CNc2nccc(C(F)(F)F)n2)c(C2CCN(C(=O)Nc3c(F)cccc3F)CC2)n1` [Compound N20, N-(2,6-Difluorophenyl)-4-[5-(1,1-difluoro-2-{[4-(trifluoromethyl)pyrimidin-2-yl]amino}ethyl)-2-methylpyrimidin-4-yl]piperidine-1-carboxamide] it is 7.67; for `Cc1ncc(C(F)(F)CNc2nccc(C(F)(F)F)n2)c(C2CCN(C(=O)Cc3c(F)cccc3F)CC2)n1` [Compound N21, N-[2-(4-{1-[(2,6-Difluorophenyl)acetyl]piperidin-4-yl}-2-methylpyrimidin-5-yl)-2,2-difluoroethyl]-4-(trifluoromethyl)pyrimidin-2-amine] it is 7.85.
As to `Cc1ncc(C(F)COc2cccc(C(F)(F)F)n2)c(C2CCN(C(=O)Nc3c(F)cccc3F)CC2)n1` (stereo not shown) [Compound N22, N-(2,6-Difluorophenyl)-4-[5-(1-fluoro-2-{[6-(trifluoromethyl)pyridin-2-yl]oxy}ethyl)-2-methylpyrimidin-4-yl]piperidine-1-carboxamide], the pIC50 is 8.15.
In the case of `Cc1ncc(C(N)COc2cccc(C(F)(F)F)n2)c(C2CCN(C(=O)Nc3c(F)cccc3F)CC2)n1` (stereo not shown) [Compound N23, 4-[5-(1-Amino-2-{[6-(trifluoromethyl)pyridin-2-yl]oxy}ethyl)-2-methylpyrimidin-4-yl]-N-(2,6-difluorophenyl)piperidine-1-carboxamide] it was 7.91.
The figure for `Nc1ncc(C(N)COc2cccc(C(F)(F)F)n2)c(C2CCN(C(=O)Nc3c(F)cccc3F)CC2)n1` (stereo not shown) [Compound N24, 4-[2-Amino-5-(1-amino-2-{[6-(trifluoromethyl)pyridin-2-yl]oxy}ethyl)pyrimidin-4-yl]-N-(2,6-difluorophenyl)piperidine-1-carboxamide] is 8.03; for `Cc1ncc(/C(COc2cccc(C(F)(F)F)n2)=N/O)c(C2CCN(C(=O)Nc3c(F)cccc3F)CC2)n1` [Compound N26, N-(2,6-difluorophenyl)-4-{5-[(1Z)—N-hydroxy-2-{[6-(trifluoromethyl)pyridin-2-yl]oxy}ethanimidoyl]-2-methylpyrimidin-4-yl}piperidine-1-carboxamide] it is 6.85.
The figure for `CNC(COc1cccc(C(F)(F)F)n1)c1cnc(N)nc1C1CCN(C(=O)Nc2c(F)cccc2F)CC1` (stereo not shown) [Compound N27, 4-{2-Amino-5-[1-(methylamino)-2-{[6-(trifluoromethyl)pyridin-2-yl]oxy}ethyl]pyrimidin-4-yl}-N-(2,6-difluorophenyl)piperidine-1-carboxamide] is 7.74; for `CC(=O)N1CCC(NC(COc2cccc(C(F)(F)F)n2)c2cnc(C)nc2C2CCN(C(=O)Nc3c(F)cccc3F)CC2)CC1` (stereo not shown) [Compound N28, 4-[5-(1-[(1-Acetylpiperidin-4-yl)amino]-2-{[6-(trifluoromethyl)pyridin-2-yl]oxy}ethyl)-2-methylpyrimidin-4-yl]-N-(2,6-difluorophenyl)piperidine-1-carboxamide] it is 7.15.
Regarding `Nc1ncc(C(N)COc2cccc(C(F)(F)F)n2)c(C2CCN(C(=O)Oc3ccccc3F)CC2)n1` (stereo not shown) [Compound N29, 2-Fluorophenyl 4-[2-amino-5-(1-amino-2-{[6-(trifluoromethyl)pyridin-2-yl]oxy}ethyl)pyrimidin-4-yl]piperidine-1-carboxylate], the pIC50 is 5.00.
Turning to `Cc1ncc(C(O)(CCO)COc2cccc(C(F)(F)F)n2)c(C2CCN(C(=O)Nc3c(F)cccc3F)CC2)n1` (stereo not shown) [Compound N30, N-(2,6-Difluorophenyl)-4-{5-[1,3-dihydroxy-1-({[6-(trifluoromethyl)pyridin-2-yl]oxy}methyl)propyl]-2-methylpyrimidin-4-yl}piperidine-1-carboxamide], the pIC50 is 7.96.
The figure for `Cc1ncc(C(O)(CCN)COc2cccc(C(F)(F)F)n2)c(C2CCN(C(=O)Nc3c(F)cccc3F)CC2)n1` (stereo not shown) [Compound N31, 4-(5-(4-Amino-2-hydroxy-1-(6-(trifluoromethyl)pyridin-2-yloxy)butan-2-yl)-2-methylpyrimidin-4-yl)-N-(2,6-difluorophenyl)piperidine-1-carboxamide] is 6.21; for `Cc1ncc(C(O)(CO)COc2cccc(C(F)(F)F)n2)c(C2CCN(C(=O)Nc3c(F)cccc3F)CC2)n1` (stereo not shown) [Compound N32, N-(2,6-Difluorophenyl)-4-{5-[1,2-dihydroxy-1-({[6-(trifluoromethyl)pyridin-2-yl]oxy}methyl)ethyl]-2-methylpyrimidin-4-yl}piperidine-1-carboxamide] it is 8.24.

The term pIC50 denotes −log10 of the IC50, conventionally taken in molar units.
